Each block holds one molecule with its values, some of them ahead of it.
What was measured:
[1] = test system: Arabidopsis thaliana wild type (Col-0) seedlings; test: Arabidopsis seedling growth (cotyledon size, primary root elongation); assay type: in vivo
rat FAAH [2] = molecular target: T1, rat FAAH (Rattus norvegicus, UniProt P97612); test: Ethanolamine inhibition assay, rat FAAH; assay type: biochemical
T1 construct: made in house; host or cells: E. coli TOP10
T1 sequence (P97612 1-579): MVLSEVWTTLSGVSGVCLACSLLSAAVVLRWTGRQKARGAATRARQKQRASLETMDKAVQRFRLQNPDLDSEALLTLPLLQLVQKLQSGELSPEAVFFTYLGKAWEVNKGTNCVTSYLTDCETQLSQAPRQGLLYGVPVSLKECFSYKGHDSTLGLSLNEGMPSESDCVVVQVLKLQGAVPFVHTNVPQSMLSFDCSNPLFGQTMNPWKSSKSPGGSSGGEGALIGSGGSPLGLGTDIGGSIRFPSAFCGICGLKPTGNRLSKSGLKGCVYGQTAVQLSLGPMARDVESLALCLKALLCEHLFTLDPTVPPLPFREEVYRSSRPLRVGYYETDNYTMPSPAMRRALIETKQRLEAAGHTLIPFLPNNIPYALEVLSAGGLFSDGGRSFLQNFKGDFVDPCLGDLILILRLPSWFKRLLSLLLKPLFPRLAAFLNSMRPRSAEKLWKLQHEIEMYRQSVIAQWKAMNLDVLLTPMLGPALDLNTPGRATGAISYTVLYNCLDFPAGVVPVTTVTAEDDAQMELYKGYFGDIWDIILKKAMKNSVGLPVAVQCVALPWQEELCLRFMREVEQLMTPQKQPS

At-FAAH = molecular target: T2, At-FAAH (Arabidopsis thaliana, UniProt Q7XJJ7); test: Ethanolamine inhibition assay, At-FAAH; assay type: biochemical
T2 construct: made in house; host or cells: E. coli TOP10
T2 sequence (Q7XJJ7 1-607): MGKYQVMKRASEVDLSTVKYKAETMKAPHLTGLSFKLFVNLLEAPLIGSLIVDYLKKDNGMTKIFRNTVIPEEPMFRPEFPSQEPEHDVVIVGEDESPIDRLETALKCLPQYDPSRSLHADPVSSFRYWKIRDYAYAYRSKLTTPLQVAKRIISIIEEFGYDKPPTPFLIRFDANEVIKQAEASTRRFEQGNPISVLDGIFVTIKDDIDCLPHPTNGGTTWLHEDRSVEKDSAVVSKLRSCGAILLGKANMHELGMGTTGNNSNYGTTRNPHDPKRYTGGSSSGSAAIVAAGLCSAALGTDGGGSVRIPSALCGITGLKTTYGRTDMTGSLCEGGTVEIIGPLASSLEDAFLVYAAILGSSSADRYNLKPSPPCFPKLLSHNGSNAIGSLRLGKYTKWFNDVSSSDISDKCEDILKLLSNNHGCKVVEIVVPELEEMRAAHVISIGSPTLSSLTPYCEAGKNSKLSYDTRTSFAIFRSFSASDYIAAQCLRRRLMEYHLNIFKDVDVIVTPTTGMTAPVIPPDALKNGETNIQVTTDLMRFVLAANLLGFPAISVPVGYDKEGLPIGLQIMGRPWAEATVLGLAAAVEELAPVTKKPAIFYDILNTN

rat FAAH [3] = molecular target: T1, rat FAAH; test: NAE amidohydrolase assay on purified recombinant rat FAAH; assay type: biochemical
[4] = molecular target: T3, NAE amidohydrolase activity from crude seedling extracts (Arabidopsis thaliana, UniProt Q7XJJ7); test: Plant amidohydrolase assay on crude seedling protein extract; assay type: biochemical; details: [1-14C]-NAE 12:0, 11-d-old seedlings, 2 hours
T3 construct: from tissue; host or cells: 11-day-old Arabidopsis thaliana Col-0 seedlings, total solubilized protein
T3 sequence (Q7XJJ7 1-607): T2 sequence (Q7XJJ7 1-607)

[5] = molecular target: T4, Arabidopsis thaliana FAAH (AT-FAAH) (Arabidopsis thaliana, UniProt Q7XJJ7); test: NAE amidohydrolase assay on purified recombinant At-FAAH; assay type: biochemical
T4 construct: made in house; host or cells: E. coli TOP10
T4 sequence (Q7XJJ7 1-607): T2 sequence (Q7XJJ7 1-607)

rat E18 cortical neurons = test: Viability of cultured primary neurons (calcein fluorescence), tBHP oxidative stress; assay type: cell-based
Description: Commercially obtained Sprague/Dawley rat E18 cortical tissue was allowed to settle for 5-10 minutes at room temperature, the shipping media was removed (reserved at 37° C.), and the tissue was enzymatically treated with NeuroPapain dissolved in NeuroPrep Medium (2 mg/ml, 2.5 ml) for 28 minutes at 37° C. with gentle swirling every 7 minutes. Treated tissue was centrifuged for 1.5 minutes at 200×g and the cells were dissociated by gentle trituration in 1 ml of the reserved shipping medium. Cells were collected by centrifugation as above and re-suspended by gentle trituration in 1 ml of NeuroPure plating medium. Viable cells were counted, (Nexcelom Auto T4; Nexcelom Bioscience LLC. Lawrence, Mass.) re-suspended in 9 ml of NeuroPure plating medium plus enough Neurobasal medium (supplemented with B27; GlutaMAX I, 2 mM; Penicillin, 50 U/ml; Streptomycin, 50 μg/ml) to achieve a density of 250,000 cells/ml, and seeded in BD PureCoat™ black-walled amine-coated 96-well plates in a 100 μl volume. […]
Oxidative stress was induced by the addition of concentrated tert-butyl hydrogen peroxide (tBHP) to achieve a final concentration of 7.5 μM. […] For each condition, six replicate wells were measured and the mean value was used for statistical analyses. Data was analyzed and plotted using Prism 5.0 (GraphPad Software Inc., La Jolla, Calif.). […]

rat brain FAAH = molecular target: T5, rat brain FAAH (Rattus norvegicus, UniProt P97612); details: reported value; read-out: IC50 for anandamide hydrolysis; cited from earlier work
T5 construct: host or cells: rat brain
T5 sequence (P97612 1-579): T1 sequence (P97612 1-579)

[6] = 100 μM compound, up to 10 mM ethanolamine, 100 μM [1-14C]-NAE 12:0
[7] = 2 μg protein, 100 μM-300 μM substrate, TLC
[8] = 100 μM [1-14C]-NAE 12:0 with 100 μM compound

SMILES: CCCCCCCCCCCC(=O)NCCO [NAE 12:0, N-lauroylethanolamine, reference compound]
seedling growth on exogenous application ([1]; applied exogenously): inhibits seedling growth

NAE hydrolase activity at increasing ethanolamine concentrations (rat FAAH [2]; 0-100 mM ethanolamine): dose-dependent reduction | NAE hydrolase activity at increasing ethanolamine concentrations (At-FAAH; 0-100 mM ethanolamine): dose-dependent reduction
SMILES: NCCO [ethanolamine]

apparent Vmax (rat FAAH [3]): increased | hydrolysis of the compound as substrate to acid form and ethanolamine (rat FAAH [3]; [7]): not suitable substrates | amidohydrolase activity toward NAE (rat FAAH [3]; [8]): increased | increase of activity by a factor (rat FAAH [3]; 100 μM compound, NAE 16:0 and NAE 12:0): about 5±2.2 | Kcat versus solvent control (rat FAAH [3]; NAE 20:4 substrate, 100 μM compound): increase in Kcat | NAE amidohydrolase activity of crude seedling extracts [4]: enhancement | apparent Vmax [5]: increased | hydrolysis of the compound as substrate to acid form and ethanolamine [5, 7]: not suitable substrates | amidohydrolase activity toward NAE [5, 8]: increased | increase of activity by a factor ([5]; 100 μM compound, different [1-14C]-NAEs): about 4±1.2 | Km app versus solvent control ([5]; NAE 12:0 substrate, 100 μM compound, T-test confidence level 95%): No statistical difference | non-enzymatic hydrolysis of NAE to free fatty acid ([5]; heat-denaturated enzyme, 100 μM compound): no activity
SMILES: CCCCCCCCCCCCCCCc1cccc(OCC(=O)NCCO)c1 [PDP-EA, N-(2-hydroxyethyl)-2-(3-pentadecylphenoxy)acetamide]
protection from ethanolamine product inhibition (rat FAAH [2]; [6]): relieved this ethanolamine inhibition almost completely | protection from ethanolamine product inhibition (At-FAAH; [6]): relieved this ethanolamine inhibition almost completely | reversal of negative seedling growth effects of exogenous NAE 12:0 ([1]; 30 μM NAE 12:0, 20 μM compound, 11 days): reverse partially | seedling growth (cotyledon size), compound alone ([1]; compound alone, 11 days): positive impact on seedling growth | reversal of negative effects of NAE 12:0 on cotyledon size ([1]; with NAE 12:0, 11 days): partially reversed

SMILES: NC(=O)c1cccc(-c2cccc(OC(=O)NC3CCCCC3)c2)c1 [URB597]
reversal of cardanol-induced exacerbation of tBHP mediated cell death by FAAH inhibitor (rat E18 cortical neurons): completely reversed

SMILES: CCCCCCCCCCCCCCCC(=O)NCCO [NAE 16:0, N-palmitoylethanolamine]
reversal of cardanol-induced exacerbation of tBHP mediated cell death (rat E18 cortical neurons; 1 hour prior to addition of 1 nM cardanol-EA): dose-dependent reversal | IC50 (rat brain FAAH): 5.1 µM

— US9849101B2, “Method for enhancing amidohydrolase activity of fatty acid amide hydrolase” (Research Foundation of the City University of New York, priority 2013, dated 2017)
